In ChEMBL document CHEMBL1124317, “Rationale for the synthesis and preliminary biological evaluation of highly active new antitumor nitrosoureido sugars” (J Med Chem, 1989):

How the values were obtained:
[1] = Mortality range of the mice with L1210 leukemia treated with 5 mg/kg of dose intraperitoneally with no of mice survived/no of mice treated; 0/10; assay type: functional; conditions: route intraperitoneal
[2] = Mortality range of the mice with B16 Melanocarcinoma treated with 20 mg/kg of dose intraperitoneally with no of mice survived/no of mice treated; 0/10; assay type: functional; conditions: route intraperitoneal
[3] = test system: Mus musculus; experiment: The number of L1210 leukemia mice survived after 30 days with compound injected by a dose of 5 mg/kg intraperitoneally; 3/10; assay type: functional; conditions: route intraperitoneal
[4] = Mortality range of the mice with L1210 leukemia treated with 2.5 mg/kg of dose intraperitoneally with no of mice survived/no of mice treated; 0/8; assay type: functional; conditions: route intraperitoneal
[5] = test system: Mus musculus; experiment: Median survival time of the non surviving mice; treated with 20 mg/kg of compound in olive oil to mice with L1210 leukemia tumor; […]; assay type: functional
[6] = test system: Mus musculus; experiment: Anti tumor activity l when treated to mice with L1210 leukemia with 5 mg/kg dose of compound intraperitoneally was expressed as percent of treated to control (T/C %); assay type: functional; conditions: route intraperitoneal
[7] = Mortality range of the mice with B16 Melanocarcinoma treated with 30 mg/kg of dose intraperitoneally with no of mice survived/no of mice treated; 0/10; assay type: functional; conditions: route intraperitoneal
[8] = test system: Mus musculus; experiment: The number of B16 Melanocarcinoma mice survived after 30 days with compound injected by a dose of 30 mg/kg intraperitoneally; 10/10; assay type: functional; conditions: route intraperitoneal
[9] = Ratio of mice died to that of mice treated with 20 mg/kg of compound in olive oil intraperitoneally with L1210 leukemia tumor; 0/15; assay type: functional; conditions: route intraperitoneal
[10] = test system: Mus musculus; experiment: Median survival time of the non surviving mice; treated with 5 mg/kg of compound to mice with L1210 leukemia; 11-32; assay type: functional
[11] = test system: Mus musculus; experiment: The number of L1210 leukemia mice survived after 60 days with compound injected by a dose of 5 mg/kg intraperitoneally; 8/8; assay type: functional; conditions: route intraperitoneal
[12] = test system: Mus musculus; experiment: The number of L1210 Leukemia mice survived after 30 days with compound in olive oil injected by a dose of 20 mg/kg intraperitoneally; 15/15; assay type: functional; conditions: route intraperitoneal
[13] = Mortality range of the mice with L1210 leukemia treated with 1.25 mg/kg of dose intraperitoneally with no of mice survived/no of mice treated; 0/8; assay type: functional; conditions: route intraperitoneal
[14] = test system: Mus musculus; experiment: The number of L1210 leukemia mice survived after 30 days with compound in aqueous solution injected by a dose of 20 mg/kg intraperitoneally; 6/10; assay type: functional; conditions: route intraperitoneal
[15] = test system: Mus musculus; experiment: The number of B16 melanocarcinoma mice survived after 30 days with compound in olive oil injected by a dose of 20 mg/kg intraperitoneally; 13/20; assay type: functional; conditions: route intraperitoneal
[16] = test system: Mus musculus; experiment: The number of B16 Melanocarcinoma mice survived after 60 days with compound injected by a dose of 5 mg/kg intraperitoneally; 1/10; assay type: functional; conditions: route intraperitoneal
[17] = Mortality range of the mice with L1210 leukemia treated with 10 mg/kg of dose intraperitoneally with no of mice survived/no of mice treated; 0/8; assay type: functional; conditions: route intraperitoneal
[18] = Mortality range of the mice with B16 Melanocarcinoma treated with 5 mg/kg of dose intraperitoneally with no of mice survived/no of mice treated; 0/10; assay type: functional; conditions: route intraperitoneal
[19] = test system: Mus musculus; experiment: Anti tumor activity l when treated to mice with B16 Melanocarcinoma with 10 mg/kg dose of compound intraperitoneally was expressed as percent of treated to control (T/C %); assay type: functional; conditions: route intraperitoneal
[20] = test system: Mus musculus; experiment: The number of L1210 leukemia mice survived after 30 days with compound injected by a dose of 5 mg/kg intraperitoneally; 8/8; assay type: functional; conditions: route intraperitoneal
[21] = test system: Mus musculus; experiment: The number of L1210 leukemia mice survived after 60 days with compound injected by a dose of 20 mg/kg intraperitoneally; 10/10; assay type: functional; conditions: route intraperitoneal
[22] = Mortality range of the mice with B16 Melanocarcinoma treated with 10 mg/kg of dose intraperitoneally with no of mice survived/no of mice treated; 0/10; assay type: functional; conditions: route intraperitoneal
[23] = Mortality range of the mice with L1210 leukemia treated with 30 mg/kg of dose intraperitoneally with no of mice survived/no of mice treated; 1/10; assay type: functional; conditions: route intraperitoneal
[24] = test system: Mus musculus; experiment: Median survival time of the non surviving mice; treated with 5 mg/kg of compound to mice with B16 Melanocarcinoma; 30-47; assay type: functional
[25] = test system: Mus musculus; experiment: The number of L1210 leukemia mice survived after 60 days with compound injected by a dose of 2.5 mg/kg intraperitoneally; 0/10; assay type: functional; conditions: route intraperitoneal
[26] = test system: Mus musculus; experiment: The number of L1210 leukemia mice survived after 60 days with compound injected by a dose of 5 mg/kg intraperitoneally; 2/10; assay type: functional; conditions: route intraperitoneal
[27] = species on record: Mus musculus; experiment: (§1) Lethal dose was evaluated in female mouse; assay type: toxicity, organism-based; conditions: in vivo
[28] = as §1; assay type: toxicity, organism-based; conditions: in vivo
[29] = test system: Mus musculus; experiment: The number of B16 Melanocarcinoma mice survived after 60 days with compound injected by a dose of 30 mg/kg intraperitoneally; 9/10; assay type: functional; conditions: route intraperitoneal
[30] = test system: Mus musculus; experiment: The number of Lewis lung mice survived after 30 days with compound in olive oil injected by a dose of 20 mg/kg intraperitoneally; 20/20; assay type: functional; conditions: route intraperitoneal
[31] = test system: Mus musculus; experiment: The number of L1210 leukemia mice survived after 30 days with compound injected by a dose of 0.625 mg/kg intraperitoneally; 0/8; assay type: functional; conditions: route intraperitoneal
[32] = test system: Mus musculus; experiment: The number of L1210 leukemia mice survived after 60 days with compound injected by a dose of 30 mg/kg intraperitoneally; 9/10; assay type: functional; conditions: route intraperitoneal
[33] = Ratio of mice died to that of mice treated with 5 mg/kg of compound in aqueous solution intraperitoneally with L1210 leukemia; 0/10; assay type: functional; conditions: route intraperitoneal
[34] = test system: Mus musculus; experiment: The number of L1210 leukemia mice survived after 60 days with compound in aqueous solution injected by a dose of 20 mg/kg intraperitoneally; 6/10; assay type: functional; conditions: route intraperitoneal
[35] = test system: Mus musculus; experiment: Anti tumor activity l when treated to mice with L1210 leukemia with 0.625 mg/kg dose of compound intraperitoneally was expressed as percent of treated to control (T/C %); assay type: functional; conditions: route intraperitoneal
[36] = Mortality range of the mice with L1210 leukemia treated with 20 mg/kg of dose intraperitoneally with no of mice survived/no of mice treated; 0/10; assay type: functional; conditions: route intraperitoneal
[37] = Mortality range of the mice with L1210 leukemia treated with 2.5 mg/kg of dose intra peritoneally with no of mice survived/no of mice treated; 0/10; assay type: functional
[38] = test system: Mus musculus; experiment: The number of Lewis lung mice survived after 60 days with compound in olive oil injected by a dose of 20 mg/kg intraperitoneally; 18/20; assay type: functional; conditions: route intraperitoneal
[39] = test system: Mus musculus; experiment: The number of B16 Melanocarcinoma mice survived after 30 days with compound injected by a dose of 5 mg/kg intraperitoneally; 9/10; assay type: functional; conditions: route intraperitoneal
[40] = test system: Mus musculus; experiment: The number of B16 Melanocarcinoma mice survived after 60 days with compound injected by a dose of 10 mg/kg intraperitoneally; 3/10; assay type: functional; conditions: route intraperitoneal
[41] = test system: Mus musculus; experiment: The number of L1210 leukemia mice survived after 30 days with compound injected by a dose of 10 mg/kg intraperitoneally; 9/10; assay type: functional; conditions: route intraperitoneal
[42] = test system: Mus musculus; experiment: The number of L1210 leukemia mice survived after 30 days with compound injected by a dose of 1.25 mg/kg intraperitoneally; 0/8; assay type: functional; conditions: route intraperitoneal
[43] = test system: Mus musculus; experiment: Median survival time of the non surviving mice; treated with 2.5 mg/kg of compound to mice with L1210 leukemia; 40-54; assay type: functional

CO[C@@H]1C[C@@H](NC(=O)N(CCCl)N=O)[C@H](O)[C@@H](CO)O1 [ECOMUSTINE]
Ratio [1]: 0
Ratio [2]: 0
Survivals [3]: 3
Ratio [4]: 0
Median survival time [5]: 57.5
T/C [6]: 164%
Ratio [7]: 0
Survivals [8]: 10
Ratio [9]: 0
Median survival time [10]: 15.4
Survivals [11]: 8
Survivals [12]: 15
Ratio [13]: 0
Survival after 30 days [14]: 6
Survivals [15]: 13
Survivals [16]: 1
Ratio [17]: 0
Ratio [18]: 0
T/C [19]: 233%
Survivals [20]: 8
Survivals [21]: 10
Ratio [22]: 0
Ratio [23]: 1
Median survival time [24]: 40
Survivals [25]: 0
Survivals [26]: 2
LD10 [27]: 29.4 mg/kg
LD90 [27]: 56.4 mg/kg
LD50 [28]: 40.7 mg/kg
Survivals [29]: 9
Survivals [30]: 20
Survivals [31]: 0
Survivals [32]: 9
Ratio [33]: 0
Survivals [34]: 6
T/C [35]: 125%
Ratio [36]: 0
Ratio [37]: 0
Survivals [38]: 18
Survivals [39]: 9
Survivals [40]: 3
Survivals [41]: 9
Survival after 30 days [42]: 0
Median survival time [43]: 43.2
